Where no end group is shown, it is not given here.
Legend:
[1] = tested on: RD cells; experiment: Cytotoxicity of peptides on RD cells (Cell Titer-Glo); assay type: cell-based, human; settings: cell viability plotted against peptide concentration, Cell Titer-Glo (S1A-S1D Fig)
Protocol: To test whether Cathelicidin peptide (LL-37) and its analogues could inhibit enterovirus infection, we conducted viral infection inhibition test on RD cells, which are one of the most commonly used cells for enterovirus propagation. We first assessed the cytotoxicity of LL-37, LL-18, FF-18, and a short form of LL-37 (DL-37) (Fig 1A), and all the peptides tested have a CC50 over 50 μM (S1A–S1D Fig). We then chose lower concentrations to test their antiviral activity. […] In addition, EV71 infection could cause cytopathic effect (CPE) on RD cells, and peptide could rescue EV71-induced cell death as assayed by crystal violet staining (Fig 1E) or cellular ATP content measurement (Fig 1F).
(§1) Cell viability assays were carried out using the Cell Titer-Glo Luminescent Cell Viability Assay Kit (Promega, Madison, WI) following the manufacturer’s instructions. Luminescence signals were measured using a BioTek Neo2 microplate reader.
(§2) (A-D) Cell viability of RD cells treated with the indicated amount of DL-37 (A), LL-37 (B), LL-18 (C), or FF-18 (D) was plotted against peptide concentration, and the cytotoxicity was determined. (E) EV71 virus pre-incubated with indicated amounts of DL-37, and the cell viability was determined 24 h.p.i. ***, P<0.001. (F-G) CVB5 (F) or Echo7 (G) virus pre-incubated with 0.3, 0.9, or 1.5 μM of peptides were used to infect RD cells. Cell viability was determined 24 h.p.i. ***, P<0.001. (H-I) CVB5 (H) or Echo7 (I) virus pre-incubated with 3, 6, or 12 μM of peptides were used to infect RD cells. Cell viability was determined 24 h.p.i. ***, P<0.001. (TIF) Click here for additional data file.

[2] = tested on: EV71 virus; experiment: EV71 infection inhibition on RD cells (VP1 immunoblot, viral titer, cell viability/CPE); assay type: cell-based, enterovirus 71 (EV71); settings: for inhibition of EV71 viral VP1 protein expression: EV71 MOI = 1 pre-incubated with peptide 1 hr at room temperature, RD cells, immunoblotting, 24 h.p.i
Protocol: (§3) Synthetic peptides were purchased from Bioyears Co. Ltd. (Wuhan, China) with purity of more than 95% and dissolved in PBS. To test their inhibitory effects, the EV71 virus (MOI = 1) was incubated with the indicated amount of peptide at room temperature for 1 hr before the mixture was added to RD cells and maintained throughout the experiment. Cell viability, viral titer, or viral protein expression was determined 24 h.p.i. For the time-of-addition experiment, viruses were either pre-incubated with peptides (for the -2 and -1 time points), the mixture was added to the cells simultaneously (for 0 time point), or peptides were added after virus infection (for 1, 2, 4 and 7 h time points) and the virus/peptide was maintained in the culture before cell viability, viral titer, or viral protein expression was determined 24 h.p.i. The TCID50 of the virus was calculated according to the Reed-Muench method.
Cells were treated as described and harvested with LDS sample buffer (Thermo Fisher Scientific). After denaturation, samples were separated on 10% SDS-PAGE gel and then transferred to a polyvinylidene fluoride (PVDF) membrane. The proteins were blocked using 5% skimmed milk and probed with the corresponding antibodies. The following antibodies were used in this study: EV71 VP1 polyclonal antibody (GeneTex, Taiwan, China), β-Actin antibody (Zen BioScience, Chengdu, China), pan-Enterovirus Monoclonal antibody (Thermo Fisher Scientific). The chemiluminescence signals were visualized using ECL Advance reagents (Mishubio, China), and the images were acquired using the FUSION Solo S Imaging System (VILBER, France).
as §1
For crystal violet staining, cells treated as indicated were first washed once with PBS, followed by fixation with 4% PFA. Cells were then stained with 0.5% crystal violet for 2 hrs before they were extensively washed with water.

[3] = tested on: coxsackievirus B5 (CVB5); experiment: CVB5 infection inhibition on RD cells (cell viability); assay type: cell-based; settings: for inhibition of CVB5 infection: 0.3, 0.9, or 1.5 μM peptide pre-incubated with virus, RD cell viability 24 h.p.i (S1F Fig); for inhibition of CVB5 infection, higher concentrations: 3, 6, or 12 μM peptide pre-incubated with virus, RD cell viability 24 h.p.i (S1H Fig)
Protocol: as §3, §1, §2

[4] = tested on: Echovirus 7 (Echo7); experiment: Echo7 infection inhibition on RD cells (cell viability); assay type: cell-based; settings: for inhibition of Echo7 infection: 0.3, 0.9, or 1.5 μM peptide pre-incubated with virus, RD cell viability 24 h.p.i (S1G Fig); for inhibition of Echo7 infection, higher concentrations: 3, 6, or 12 μM peptide pre-incubated with virus, RD cell viability 24 h.p.i (S1I Fig)
Protocol: as §3, §1, §2

[5] = tested on: EV71 subgenomic replicon; experiment: EV71 subgenomic replicon (SGR) Renilla luciferase assay; assay type: cell-based, enterovirus 71 (EV71); settings: RD cells transfected with SGR RNA, 1.5 μM peptide for 3 or 6 hrs
Protocol: Fig 3 LL-18 and FF-18 inhibit viral attachment and internalization. (A) EV71 virus (MOI = 1) was pre-incubated with 1.5 μM LL-18, FF-18 or 12 μM 12s before they were used to incubate with RD cells at 4°C for 1 hr. Viral RNA was then determined with q-RT-PCR. Values are normalized to vehicle treated cells. ***, P<0.001. (B) EV71 virus (MOI = 1) was pre-incubated with 1.5 μM LL-18, FF-18 or 12 μM 12s before they were used to incubate with RD cells at 4°C for 1 hr followed by 37°C incubation for 1 hr. Viral RNA was then determined with q-RT-PCR. Values are normalized to vehicle treated cells. ***, P<0.001. (C) Diagram of EV71 subgenomic replicon. Part of the structural genes was replaced with a Renilla luciferase reporter gene. (D) RD cells transfected with EV71 SGR RNA were treated with 1.5 μM LL-18 or FF-18 for 3 hrs (left panel) or 6 hrs (right panel) before luciferase activity was measured. ns, not significant. […]
Full-length NanoLuc-EV71 reporter viruses and subgenomic EV71 replicon (SGR) were described previously. […] Nano luciferase and Renilla luciferase were measured with Nano-Glo or Renilla luciferase assay system from Promega (Madison, WI). Luminescence signals were measured using a BioTek Neo2 microplate reader.

Sequence	CC50 [1]	inhibition of EV71 infection (overall conclusion) [2]	reduction of EV71 viral titer in supernatant [2]	inhibition of EV71 viral VP1 protein expression [2]	inhibition of CVB5 infection [3]	inhibition of CVB5 infection, higher concentrations [3]	inhibition of Echo7 infection [4]	inhibition of Echo7 infection, higher concentrations [4]	inhibition of EV71 SGR luciferase (viral translation or replication) [5]
FRKSKEKIGKFFKRIVQRIFDFLRNLV [FF-18]	over 50 μM	could effectively inhibit EV71 infection	reduce the viral titers dose-dependently	inhibit EV71 viral protein expression in a dose-dependent manner	neither LL-18 nor FF-18 could inhibit CVB5 or Echo 7 infection	could still not inhibit CVB5 or Echo 7 infection	neither LL-18 nor FF-18 could inhibit CVB5 or Echo 7 infection	could still not inhibit CVB5 or Echo 7 infection	no inhibition
FRKSKEKIGKLFKRIVQRILDFLRNLV [LL-18]	over 50 μM	could effectively inhibit EV71 infection	reduce the viral titers dose-dependently	inhibit EV71 viral protein expression in a dose-dependent manner	neither LL-18 nor FF-18 could inhibit CVB5 or Echo 7 infection	could still not inhibit CVB5 or Echo 7 infection	neither LL-18 nor FF-18 could inhibit CVB5 or Echo 7 infection	could still not inhibit CVB5 or Echo 7 infection	no inhibition
